# Measurements published in patent publication US8343475B2, “Small cationic antimicrobial peptides” (priority 2006, dated 2013).
# Where two headings read alike, the source gives them in different places. Residues, ends and D or L forms follow the SMILES beside them.
# How the values were obtained:
# Type in all cases: cell-based
# [1] = system: MCP-3 release by human PBMC; assay: Chemokine induction in PBMC (capture ELISA); settings: background (6) subtracted
# Experimental: FIG. 16. Induction of MCP3 release by 7.5×10^5 human PBMC in response to treatment with 20 or 100 μg/ml of different peptides for 24 hours.
# (§1) Venous blood (20 ml) from healthy volunteers was collected in Vacutainer® collection tubes containing sodium heparin as an anticoagulant (Becton Dickinson, Mississauga, ON) in accordance with UBC ethical approval and guidelines. Blood was diluted 1:1 with complete RPMI 1640 medium and separated by centrifugation over a Ficoll-Paque® Plus (Amersham Biosciences, Piscataway, N.J., USA) density gradient. White blood cells were isolated from the buffy coat, washed twice in RPMI 1640 complete medium, and the number of peripheral blood mononuclear cells (PBMC) was determined by trypan blue exclusion. PBMC (5×10^5) were seeded into 12-well tissue culture dishes (Falcon; Becton Dickinson) at 0.75 to 1×10^6 cells/ml at 37° C. in 5% CO2. The above conditions were chosen to mimic conditions for circulating blood monocytes entering tissues at the site of infection via extravasation.
# (§2) Following incubation of the cells under various treatment regimens, the tissue culture supernatants were centrifuged at 1000×g for 5 min, then at 10,000×g for 2 min to obtain cell-free samples. Supernatants were aliquoted and then stored at −20° C. prior to assay for various chemokines by capture ELISA (eBioscience and BioSource International Inc., CA, USA respectively)
# [2] = system: Pseudomonas aeruginosa PAO1 strain H103
# In short: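 Modified broth microdilution MIC in Mueller Hinton medium, peptides diluted in 0.01% acetic acid/0.2% BSA, polypropylene plates. Inoculum 2-7×10^5 CFU/ml, overnight at 37 °C; MIC is the lowest concentration with no visible growth.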
# [3] = system: MCP-1 release by human PBMC; assay: Chemokine induction in PBMC (capture ELISA); settings: background (204) subtracted
# Experimental: FIG. 15. Induction of MCP-1 release by 7.5×10^5 human PBMC in response to treatment with 20 or 100 μg/ml of different peptides for 24 hours.
# as §1, §2
# [4] = system: CXCL1 (Gro-α) release by human PBMC; assay: Chemokine induction in PBMC (capture ELISA); settings: background (196) subtracted
# Experimental: FIG. 17. Induction of CXCL1 (Gro-α) release by 7.5×10^5 human PBMC in response to treatment with 20 or 100 μg/ml of different peptides for 24 hours.
# as §1, §2
# Escherichia coli UB1005 = system: Escherichia coli UB1005
# Experimental: (§3) Minimal inhibitory concentration (MIC) determination. The MIC of the peptides were measured using a modified broth microdilution method in Mueller Hinton (MH) medium (Wu M, Hancock R E W. 1999. Interaction of the cyclic antimicrobial cationic peptide bactenecin with the outer and cytoplasmic membrane. J Biol Chem 274, 29-35). Briefly, the peptides were dissolved and stored in glass vials. The assay was performed in sterile 96-well polypropylene microtitre plates were used. Serial dilutions of the peptides to be assayed were performed in 0.01% acetic acid (Fisher) containing 0.2% bovine serum albumin (Boehringer Mannheim GmbH) at 10× the desired final concentration. Ten microlitres of the 10× peptides were added to each well of a 96-well polypropylene plate containing 90 μl of MH media per well. Bacteria were added to the plate from an overnight culture at 2-7×10^5 colony forming units/ml and incubated over night at 37° C. The MIC was taken as the concentration at which no growth was observed.
# (§4) Strains. For the killing assay a mini-Tn5-lux mutant in Pseudomonas aeruginosa H103 was used. The strain is called H1001 and contains a fliC::luxCDABE transcriptional fusion resulting in constitutive expression of luciferase. The bacterial strains used for the antimicrobial activity assays included Escherichia coli UB1005 (F-, nalA37, metB1), a wild-type Salmonella enterica ssp. typhimurium (S. typhimurium), wild-type Pseudomonas aeruginosa PAO1 strain H103, Enterococcus faecalis ATCC29212, Staphylococcus aureus ATCC25923, and a clinical isolate of Staphylococcus epidermidis obtained from Dr. D. Speert (Department of Medicine, University of British Columbia). Antifungal activity was tested using a lab isolate of Candida albicans obtained from Dr. B. Dill (Department of Microbiology and Immunology, University of British Columbia).
# [5] = system: Enterococcus faecalis ATCC29212
# Experimental: as §3, §4
# [6] = system: clinical isolate of Staphylococcus epidermidis
# Experimental: as §3, §4
# [7] = system: Staphylococcus aureus ATCC25923
# Experimental: as §3, §4
# [8] = system: wild-type Salmonella enterica ssp. typhimurium
# Experimental: as §3, §4
# [9] = system: lab isolate of Candida albicans
# Experimental: as §3, §4
# [10] = indolicidin substitution variants (Table 4)
smiles,measurement,setting,value
"CC[C@H](C)[C@H](NC(=O)[C@H](CCCNC(=N)N)NC(=O)[C@H](Cc1ccccc1)NC(=O)[C@H](CCC(N)=O)NC(=O)[C@@H](N)CCCCN)C(=O)N[C@@H](CCCNC(=N)N)C(=O)N[C@H](C(=O)N[C@@H](CCCNC(=N)N)C(=O)N[C@H](C(=O)N[C@H](C(=O)N[C@@H](CCCNC(=N)N)C(=O)N[C@@H](CCCCN)C(N)=O)[C@@H](C)CC)C(C)C)C(C)C [HH12, KQFRIRVRVIRK] (H-KQFRIRVRVIRK-NH2; N-terminus assumed)",Chemokine induction MCP-3,[1]; 20 μg/ml peptide,91 pg/mL
same,Chemokine induction MCP-3,[1]; 100 μg/ml peptide,21 pg/mL
same,MIC P. aerug,[2]; PAO1,6 µg/mL
same,Chemokine induction MCP-1,[3]; 20 μg/ml peptide,1649 pg/mL
same,Chemokine induction MCP-1,[3]; 100 μg/ml peptide,635 pg/mL
same,Chemokine induction Gro-α,[4]; 20 μg/ml peptide,773 pg/mL
same,Chemokine induction Gro-α,[4]; 100 μg/ml peptide,172 pg/mL
same,MIC E. coli,Escherichia coli UB1005; UB1005,3 µg/mL
same,MIC E. faecalis,[5]; ATCC29212,25 µg/mL
same,MIC S. epi.,[6]; clinical isolate of,1.6 µg/mL
same,MIC S. aureus,[7]; ATCC25923,12 µg/mL
same,MIC S. typhi,[8],6 µg/mL
same,MIC C. albicans,[9]; lab isolate of,6 µg/mL
"CC[C@H](C)[C@H](N)C(=O)N[C@@H](CC(C)C)C(=O)N1CCC[C@H]1C(=O)N[C@@H](Cc1c[nH]c2ccccc12)C(=O)N[C@@H](CCCCN)C(=O)N[C@@H](Cc1c[nH]c2ccccc12)C(=O)N1CCC[C@H]1C(=O)N[C@@H](Cc1c[nH]c2ccccc12)C(=O)N[C@@H](Cc1c[nH]c2ccccc12)C(=O)N1CCC[C@H]1C(=O)N[C@@H](Cc1c[nH]c2ccccc12)C(=O)N[C@@H](CCCNC(=N)N)C(=O)N[C@@H](CCCNC(=N)N)C(N)=O [Indolicidin, ILPWKWPWWPWRR-NH2, reference compound]",MIC P. aerug,[2]; [10],62 µg/mL
same,MIC E. coli,Escherichia coli UB1005; [10],8 µg/mL
same,MIC E. faecalis,[5]; [10],31 µg/mL
same,MIC S. epi.,[6]; [10],8 µg/mL
same,MIC S. aureus,[7]; [10],16 µg/mL
same,MIC S. typhi,[8],31 µg/mL
same,MIC C. albicans,[9]; [10],16 µg/mL
"CC[C@H](C)[C@H](NC(=O)[C@H](CCCNC(=N)N)NC(=O)[C@H](CC(C)C)NC(=O)[C@H](CCC(N)=O)NC(=O)[C@@H](N)C(C)C)C(=O)N[C@@H](CCCNC(=N)N)C(=O)N[C@H](C(=O)N[C@@H](CCCNC(=N)N)C(=O)N[C@H](C(=O)N[C@H](C(=O)N[C@@H](CCCNC(=N)N)C(=O)N[C@@H](CCCCN)C(N)=O)[C@@H](C)CC)C(C)C)C(C)C [HH9, VQLRIRVRVIRK] (H-VQLRIRVRVIRK-NH2; N-terminus assumed)",MIC P. aerug,[2]; PAO1,6 µg/mL
same,MIC E. coli,Escherichia coli UB1005; UB1005,3 µg/mL
same,MIC E. faecalis,[5]; ATCC29212,12 µg/mL
same,MIC S. epi.,[6]; clinical isolate of,1.6 µg/mL
same,MIC S. aureus,[7]; ATCC25923,12 µg/mL
same,MIC S. typhi,[8],6 µg/mL
same,MIC C. albicans,[9]; lab isolate of,6 µg/mL
"CC[C@H](C)[C@H](NC(=O)[C@@H](N)CCCCN)C(=O)N[C@@H](Cc1c[nH]c2ccccc12)C(=O)N[C@H](C(=O)N[C@@H](CCCNC(=N)N)C(=O)N[C@@H](Cc1c[nH]c2ccccc12)C(=O)N[C@@H](CCCCN)C(N)=O)C(C)C [HH17, KIWVRWK-NH2] (H-KIWVRWK-NH2)",MIC P. aerug,[2]; PAO1,>50 µg/mL
same,MIC E. coli,Escherichia coli UB1005; UB1005,50 µg/mL
same,MIC E. faecalis,[5]; ATCC29212,>50 µg/mL
same,MIC S. epi.,[6]; clinical isolate of,>50 µg/mL
same,MIC S. aureus,[7]; ATCC25923,>50 µg/mL
same,MIC S. typhi,[8],>50 µg/mL
same,MIC C. albicans,[9]; lab isolate of,>50 µg/mL
"CC[C@H](C)[C@H](NC(=O)[C@H](CCCNC(=N)N)NC(=O)[C@H](CC(C)C)NC(=O)[C@H](CCC(N)=O)NC(=O)[C@@H](N)C(C)C)C(=O)N[C@@H](CCCNC(=N)N)C(=O)N[C@H](C(=O)N[C@@H](C)C(=O)N[C@H](C(=O)N[C@H](C(=O)N[C@@H](CCCNC(=N)N)C(=O)N[C@@H](C)C(N)=O)[C@@H](C)CC)C(C)C)C(C)C [HH2, VQLRIRVAVIRA] (H-VQLRIRVAVIRA-NH2)",MIC P. aerug,[2]; PAO1,>50 µg/mL
same,MIC E. coli,Escherichia coli UB1005; UB1005,6 µg/mL
same,MIC E. faecalis,[5]; ATCC29212,50 µg/mL
same,MIC S. epi.,[6]; clinical isolate of,12 µg/mL
same,MIC S. aureus,[7]; ATCC25923,50 µg/mL
same,MIC S. typhi,[8],12 µg/mL
same,MIC C. albicans,[9]; lab isolate of,25 µg/mL
"CC[C@H](C)[C@H](NC(=O)[C@H](CCCNC(=N)N)NC(=O)[C@H](Cc1c[nH]c2ccccc12)NC(=O)[C@H](CCCNC(=N)N)NC(=O)[C@@H](N)CCCCN)C(=O)N[C@@H](CCCNC(=N)N)C(=O)N[C@H](C(=O)N[C@@H](CCCNC(=N)N)C(=O)N[C@H](C(=O)N[C@H](C(=O)N[C@@H](CCCNC(=N)N)C(=O)N[C@@H](CCCCN)C(N)=O)[C@@H](C)CC)C(C)C)C(C)C [HH16, KRWRIRVRVIRK] (H-KRWRIRVRVIRK-NH2)",MIC P. aerug,[2]; PAO1,3 µg/mL
same,MIC E. coli,Escherichia coli UB1005; UB1005,1.6 µg/mL
same,MIC E. faecalis,[5]; ATCC29212,12 µg/mL
same,MIC S. epi.,[6]; clinical isolate of,0.8 µg/mL
same,MIC S. aureus,[7]; ATCC25923,3 µg/mL
same,MIC S. typhi,[8],3 µg/mL
same,MIC C. albicans,[9]; lab isolate of,6 µg/mL
"CC[C@H](C)[C@H](NC(=O)[C@H](Cc1c[nH]c2ccccc12)NC(=O)[C@H](CC(C)C)NC(=O)[C@H](CCCNC(=N)N)NC(=O)[C@@H](N)C(C)C)C(=O)N[C@@H](CCCNC(=N)N)C(=O)N[C@H](C(=O)N[C@@H](C)C(=O)N[C@H](C(=O)N[C@H](C(=O)N[C@@H](CCCNC(=N)N)C(=O)N[C@@H](C)C(N)=O)[C@@H](C)CC)C(C)C)C(C)C [HH5, VRLWIRVAVIRA] (H-VRLWIRVAVIRA-NH2)",MIC P. aerug,[2]; PAO1,>50 µg/mL
same,MIC E. coli,Escherichia coli UB1005; UB1005,6 µg/mL
same,MIC E. faecalis,[5]; ATCC29212,25 µg/mL
same,MIC S. epi.,[6]; clinical isolate of,3 µg/mL
same,MIC S. aureus,[7]; ATCC25923,50 µg/mL
same,MIC S. typhi,[8],>50 µg/mL
same,MIC C. albicans,[9]; lab isolate of,50 µg/mL
"CC[C@H](C)[C@H](NC(=O)[C@H](CCCNC(=N)N)NC(=O)[C@H](CC(C)C)NC(=O)[C@H](CCCNC(=N)N)NC(=O)[C@@H](N)CCC(N)=O)C(=O)N[C@@H](CCCNC(=N)N)C(=O)N[C@H](C(=O)N[C@@H](C)C(=O)N[C@H](C(=O)N[C@H](C(=O)N[C@@H](CCCNC(=N)N)C(=O)N[C@@H](C)C(N)=O)[C@@H](C)CC)C(C)C)C(C)C [HH1, QRLRIRVAVIRA] (H-QRLRIRVAVIRA-NH2)",MIC P. aerug,[2]; PAO1,50 µg/mL
same,MIC E. coli,Escherichia coli UB1005; UB1005,6 µg/mL
same,MIC E. faecalis,[5]; ATCC29212,50 µg/mL
same,MIC S. epi.,[6]; clinical isolate of,12 µg/mL
same,MIC S. aureus,[7]; ATCC25923,50 µg/mL
same,MIC S. typhi,[8],25 µg/mL
same,MIC C. albicans,[9]; lab isolate of,25 µg/mL
